The target of this assay is ALK1 kinase (Homo sapiens (Human), UniProt P37023). Nature of the assay: In vitro enzyme inhibition using scintillation of incorporated radio label (flashplate assay). It is filed as biochemical. The note with it: biotinylated α-casein, 33P-ATP, 500 nM ATP. Here is the method: B-1a. In Vitro Enzyme Inhibition Using Scintillation of Incorporated Radio Label (Flashplate Assay)
Test compounds diluted in DMSO are mixed with a suitable substrate/co-substrate (here: biotinylated α-casein and ^33P-ATP) in a corresponding assay buffer. Addition of the enzyme of interest (here: ALK1 kinase) starts the enzyme reaction. The enzyme-catalyzed incorporation of radio label into the substrate is measured via scintillation. Incorporated radio label is separated from free radio label via specific binding of the biotinylated substrate to strepavidin-coated microtiter plates (flashplates) and concomitant washing steps. The scintillation signal intensity (counts per minutes, cpm) is proportional to the enzyme activity. Enzyme inhibition results in a decreased signal intensity. IC50 values of the test compounds are determined by cpm-versus-[I] plots.
Reaction buffer contains 50 mM Tris pH 8.0 (Sigma), 1 mM MnCl2 (Sigma), 0.01% Nonidet P40 (Fluka), 0.5× Complete EDTA-free protease inhibitors (Roche; contains a mixture of several protease inhibitors for the inhibition of serine and cysteine (but not metallo-) proteases; 1 tablet contains protease inhibitors sufficient for a 50 ml cell extract; the concentration used in this assay corresponds to 1 tablet in 100 ml).
• 1.) Stop solution: Dulbecco's PBS (PAA, Pasching, Austria), 25 mM EDTA (Sigma), 25 μM ATP (Roche), 0.05% Triton X-100 (Sigma); • 2.) Saturation buffer: Dulbecco's PBS (PAA, Pasching, Austria), 100 μM ATP (Roche), 0.2% Triton X-100 (Sigma); • 3.) Wash buffer: Dulbecco's PBS (PAA, Pasching, Austria). Enzyme Solution:
ALK1 (Invitrogen, Paisley, United Kingdom) stock solution (35.7 ng/μl) is diluted to 4 ng/μl; final concentration in the reaction is 1 ng/μl.
Dephosphorylated α-casein (Sigma) is biotinylated according to the manufacturer's protocol (Pierce, Bonn, Germany) resulting in a stock solution of 61.6 μM. Briefly, EZ-Link® Biotin reagent (sulfosuccinimidyl-6-(biotinamido)hexanoate; Pierce, Bonn, Germany) is added in equal molarity to α-casein and incubated on ice for 2 h. Afterwards, the biotin reagent is removed by dialysis (2×2 h and overnight).
A 100 mM solution of cold (unlabelled) ATP (Roche) is diluted 1:100 before each test. For the substrate mix, α-casein is diluted to 2.22 μM resulting in a final concentration of 1 μM α-casein in the reaction. Additionally, cold ATP is added to give a 1.11 μM solution which results in a final concentration of 500 nM in the reaction.
Radioactive ATP Solution:
The stock solution (9.25 MBq/25 μl of ^33P-ATP; Perkin Elmer, Rodgau, Germany) is diluted to 651.2 Bq/μl.
Compounds are dissolved in 100% DMSO (10 mM stock solution) and diluted to 2 mM. Further dilutions are made stepwise 1:3.16 in DMSO.
A volume of 9 μl substrate solution is provided into each well of a 384 well microliter plate (Greiner Bio-One, Solingen, Germany), 1 μl compound solution and 5 μl of the radioactive ATP solution are added. Enzyme reaction starts with addition of 5 μl of enzyme solution. The mixture is incubated for 60 minutes at room temperature and then stopped by addition of 10 μl stop solution. The 384 well microliter flashplates (Perkin Elmer, Rodgau, Germany) are saturated with 50 μl saturation buffer per well for at least 60 minutes. Subsequently, a volume of 20 μl is discarded and replaced with 20 μl of the stopped ALK1 reaction mixture. Binding of biotinylated substrate to the flashplate is allowed for by overnight incubation at room temperature. Bound substrate is separated from unbound components through repeated washing steps (3×50 μl washing buffer per well). Finally, 50 μl washing buffer is added, and the scintillation signal (cpm) is measured in a suitable counter (Perkin Elmer, Rodgau, Germany).

In general, IC50 refers to the concentration at which inhibition is half-maximal. The low end stands for greater potency in that assay, the high end for weaker potency in that assay.

Counter-ions that a name gives are not always drawn.

Chain of ALK1 kinase (P37023 22-503): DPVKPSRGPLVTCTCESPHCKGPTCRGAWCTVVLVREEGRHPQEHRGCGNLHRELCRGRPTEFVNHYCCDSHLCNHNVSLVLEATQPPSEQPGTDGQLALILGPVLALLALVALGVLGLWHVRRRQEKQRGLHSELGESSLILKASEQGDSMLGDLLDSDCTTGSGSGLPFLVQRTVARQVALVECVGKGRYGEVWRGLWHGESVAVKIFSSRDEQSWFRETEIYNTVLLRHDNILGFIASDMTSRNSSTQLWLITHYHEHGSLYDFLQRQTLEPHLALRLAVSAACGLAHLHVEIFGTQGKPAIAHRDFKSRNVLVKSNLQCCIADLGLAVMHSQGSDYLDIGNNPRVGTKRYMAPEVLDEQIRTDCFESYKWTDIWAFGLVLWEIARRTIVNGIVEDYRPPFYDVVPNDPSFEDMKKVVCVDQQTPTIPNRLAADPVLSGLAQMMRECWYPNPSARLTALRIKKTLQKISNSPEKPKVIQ

In turn, `Nc1ncnn2c(C3(O)CCCNC3)cc(-c3cc(F)c(CO)c(F)c3)c12` (racemic) [Example 9, rac-3-{4-Amino-5-[3,5-difluoro-4-(hydroxymethyl)phenyl]pyrrolo[2,1-f][1,2,4]triazin-7-yl}-piperidin-3-ol] had an IC50 of 5.7 nM.
Compound `CC(O)c1cc(-c2cc(F)c(CO)c(F)c2)c2c(N)ncnn12` (racemic) [Example 44, rac-1-{4-Amino-5-[3,5-difluoro-4-(hydroxymethyl)phenyl]pyrrolo[2,1-f][1,2,4]triazin-7-yl}-ethanol] registered a concentration for half-maximal inhibition (IC50) of 3.8 nM.
Then `Nc1ncnn2c(CCCCO)cc(-c3ccc(CO)cc3)c12` [Example 4, 4-{4-Amino-5-[4-(hydroxymethyl)phenyl]pyrrolo[2,1-f][1,2,4]triazin-7-yl}butan-1-ol], with 1 nM; and `Nc1ncnn2c(C(O)C3CCOCC3)cc(-c3cc(F)c(CO)c(F)c3)c12` (stereo not shown) [Example 6, {4-Amino-5-[3,5-difluoro-4-(hydroxymethyl)phenyl]pyrrolo[2,1-f][1,2,4]triazin-7-yl}(tetrahydro-2H-pyran-4-yl)methanol], with 40 nM.
Then `Nc1ncnn2c(C3CCNCC3)cc(-c3ccc(CO)cc3)c12` [Example 10, {4-[4-Amino-7-(piperidin-4-yl)pyrrolo[2,1-f][1,2,4]triazin-5-yl]phenyl}methanol], with 8 nM.
Take `Nc1ncnn2c([C@H]3CCCNC3)cc(-c3cc(F)c(CO)c(F)c3)c12` [Example 12, (4-{4-Amino-7-[(3S)-piperidin-3-yl]pyrrolo[2,1-f][1,2,4]triazin-5-yl}-2,6-difluorophenyl)methanol]: half-maximal inhibition (IC50) was put at 5.9 nM.
Then `Cc1nc(-c2cc(-c3ccc(CO)cc3)c3c(N)ncnn23)cs1` [Example 13, {4-[4-Amino-7-(2-methyl-1,3-thiazol-4-yl)pyrrolo[2,1-f][1,2,4]triazin-5-yl]phenyl}methanol], with 4 nM; and `Cc1nc(-c2cc(-c3cc(F)c(CO)c(F)c3)c3c(N)ncnn23)cs1` [Example 14, {4-[4-Amino-7-(2-methyl-1,3-thiazol-4-yl)pyrrolo[2,1-f][1,2,4]triazin-5-yl]-2,6-difluorophenyl}-methanol], with 5.3 nM; and `CCc1nc(-c2cc(-c3ccc(CO)cc3)c3c(N)ncnn23)cs1` [Example 15, {4-[4-Amino-7-(2-ethyl-1,3-thiazol-4-yl)pyrrolo[2,1-f][1,2,4]triazin-5-yl]phenyl}methanol], with 60 nM.
Then `CCc1nc(-c2cc(-c3cc(F)c(CO)c(F)c3)c3c(N)ncnn23)cs1` [Example 16, {4-[4-Amino-7-(2-ethyl-1,3-thiazol-4-yl)pyrrolo[2,1-f][1,2,4]triazin-5-yl]-2,6-difluorophenyl}-methanol], with 2.6 nM.
Then `Nc1ncnn2c(CN3CCNCC3)cc(-c3ccc(CO)cc3)c12` [Example 18, {4-[4-Amino-7-(piperazin-1-ylmethyl)pyrrolo[2,1-f][1,2,4]triazin-5-yl]phenyl}methanol], with 80 nM; and `Nc1ncnn2c(CN3CCOCC3)cc(-c3ccc(CO)cc3)c12` [Example 19, {4-[4-Amino-7-(morpholin-4-ylmethyl)pyrrolo[2,1-f][1,2,4]triazin-5-yl]phenyl}methanol], with 19 nM.
`Cc1cc(-c2cc(CN3CCOCC3)n3ncnc(N)c23)ccc1CO` [Example 23, {4-[4-Amino-7-(morpholin-4-ylmethyl)pyrrolo[2,1-f][1,2,4]triazin-5-yl]-2-methylphenyl}methanol]: the IC50 amounted to 30 nM.
`Nc1ncnn2c(CN3CCOCC3)cc(-c3ccc(CO)nc3)c12` [Example 24, {5-[4-Amino-7-(morpholin-4-ylmethyl)pyrrolo[2,1-f][1,2,4]triazin-5-yl]pyridin-2-yl}methanol] gave an IC50 of 140 nM.
The result for `Nc1ncnn2c(CN3CCC(O)CC3)cc(-c3cc(F)c(CO)c(F)c3)c12` [Example 25, 1-({4-Amino-5-[3,5-difluoro-4-(hydroxymethyl)phenyl]pyrrolo[2,1-f][1,2,4]triazin-7-yl}methyl)piperidin-4-ol] reads 65 nM; that for `Nc1ncnn2c(CN3CCC(O)C3)cc(-c3cc(F)c(CO)c(F)c3)c12` (stereo not shown) [Example 26, 1-({4-Amino-5-[3,5-difluoro-4-(hydroxymethyl)phenyl]pyrrolo[2,1-f][1,2,4]triazin-7-yl}methyl)pyrrolidin-3-ol], 30 nM; that for `Nc1ncnn2c(CN3CCCC(O)C3)cc(-c3cc(F)c(CO)c(F)c3)c12` (stereo not shown) [Example 27, 1-({4-Amino-5-[3,5-difluoro-4-(hydroxymethyl)phenyl}pyrrolo[2,1-f][1,2,4]triazin-7-yl]methyl)piperidin-3-ol], 70 nM.
In the case of `COc1cc(-c2cc([C@H]3CC[C@H](O)CC3)n3ncnc(N)c23)cc(F)c1CO` [Example 29, trans-4-{4-Amino-5-[3-fluoro-4-(hydroxymethyl)-5-methoxyphenyl]pyrrolo[2,1-f][1,2,4]triazin-7-yl}cyclohexanol], the IC50 was 1 nM.
The result for `Cc1cc(-c2cc(C3CCCNC3)n3ncnc(N)c23)cc(F)c1CO` (stereo not shown) [Example 31, {4-[4-Amino-7-(piperidin-3-yl)pyrrolo[2,1-f][1,2,4]triazin-5-yl]-2-fluoro-6-methylphenyl}-methanol] reads 4 nM.
The result for `Cc1cc(-c2cc(C3CCNC3)n3ncnc(N)c23)cc(F)c1CO` (stereo not shown) [Example 32, {4-[4-Amino-7-(pyrrolidin-3-yl)pyrrolo[2,1-f][1,2,4]triazin-5-yl]-2-fluoro-6-methylphenyl}-methanol] reads 4 nM; that for `Nc1ncnn2c(C3(O)CCCCC3)cc(-c3cc(F)c(CO)c(F)c3)c12` [Example 33, 1-{4-Amino-5-[3,5-difluoro-4-(hydroxymethyl)phenyl]pyrrolo[2,1-f][1,2,4]triazin-7-yl}cyclohexanol trifluoroacetate], 15 nM.
Then `NCc1nc(-c2cc(-c3cc(F)c(CO)c(F)c3)c3c(N)ncnn23)cs1` [Example 34, (4-[4-Amino-7-[2-(aminomethyl)-1,3-thiazol-4-yl]pyrrolo[2,1-f][1,2,4]triazin-5-yl]-2,6-difluorophenyl)methanol], with 4.1 nM.

The record behind these values is patent US9040691B2, “Hydroxymethylaryl-substituted pyrrolotriazines as ALK1 inhibitors” (BAYER INTELLECTUAL PROPERTY GMBH, priority 2011, dated 2015).
